Assay results taken from the CheMixHub viscosity set.
Several values for one entry are separate records, joined by “and”; a condition that tells them apart may be missing. Identical values can stand only once.

Test: xn = mol fraction of the nth substance listed
Conditions: 100 kPa

CN1CCCN(C)C1=O + O
viscosity
Conditions	303.15 K	308.15 K	313.15 K	318.15 K	323.15 K
x1 = 0.007139	0.942 mPa·s	0.848 mPa·s	0.769 mPa·s	0.699 mPa·s	–
x1 = 0.01508	1.127 mPa·s	1.012 mPa·s	0.919 mPa·s	0.843 mPa·s	–
x1 = 0.0297	1.386 mPa·s	1.236 mPa·s	1.112 mPa·s	1.002 mPa·s	–
x1 = 0.0568	1.979 mPa·s	1.733 mPa·s	1.538 mPa·s	1.379 mPa·s	–
x1 = 0.08573	2.774 mPa·s	2.371 mPa·s	2.05 mPa·s	1.791 mPa·s	–
x1 = 0.1227	3.836 mPa·s	3.224 mPa·s	2.741 mPa·s	2.354 mPa·s	–
x1 = 0.1461	4.568 mPa·s	3.799 mPa·s	3.201 mPa·s	2.728 mPa·s	–
x1 = 0.1745	5.342 mPa·s	4.401 mPa·s	3.676 mPa·s	3.114 mPa·s	–
x1 = 0.2062	5.943 mPa·s	4.87 mPa·s	4.051 mPa·s	3.414 mPa·s	–
x1 = 0.2453	6.471 mPa·s	5.287 mPa·s	4.386 mPa·s	3.685 mPa·s	–
x1 = 0.2961	6.828 mPa·s	5.569 mPa·s	4.616 mPa·s	3.878 mPa·s	–
x1 = 0.3486	6.796 mPa·s	5.568 mPa·s	4.626 mPa·s	3.9 mPa·s	–
x1 = 0.3968	6.483 mPa·s	5.332 mPa·s	4.45 mPa·s	3.744 mPa·s	–
x1 = 0.4616	6.161 mPa·s	5.13 mPa·s	4.326 mPa·s	3.692 mPa·s	–
x1 = 0.5081	5.768 mPa·s	4.838 mPa·s	4.11 mPa·s	3.531 mPa·s	–
x1 = 0.5809	5.129 mPa·s	4.357 mPa·s	3.75 mPa·s	3.257 mPa·s	–
x1 = 0.6498	4.532 mPa·s	3.892 mPa·s	3.37 mPa·s	2.946 mPa·s	–
x1 = 0.6917	4.245 mPa·s	3.672 mPa·s	3.202 mPa·s	2.817 mPa·s	–
x1 = 0.797	3.571 mPa·s	3.134 mPa·s	2.772 mPa·s	2.468 mPa·s	–
x1 = 0.8669	3.203 mPa·s	2.837 mPa·s	2.531 mPa·s	2.274 mPa·s	–
x1 = 0.9357	2.957 mPa·s	2.647 mPa·s	2.384 mPa·s	2.16 mPa·s	–
x1 = 0.9554	2.834 mPa·s	2.533 mPa·s	2.283 mPa·s	2.071 mPa·s	–
x2 = 0.0016	–	2.348 mPa·s and 2.365 mPa·s	2.126 mPa·s and 2.141 mPa·s	1.937 mPa·s and 1.95 mPa·s	1.777 mPa·s and 1.784 mPa·s
x2 = 0.0169	–	2.425 mPa·s	2.191 mPa·s	1.992 mPa·s	1.819 mPa·s
